# What was measured:
# cholesterol in serum [1] = test: Effect of reducing lipid level in blood: percent inhibition of cholesterol in serum of hamsters fed 1% cholesterol and 0.5% cholic acid diet; assay type: in vivo, Male golden Syrian hamsters; conditions: Mesocricetus auratus, po, 120 h, orally once a day for 5 days, relative to control group
# Experimental: The effect of reducing a lipid level in blood by the action of the compounds according to the present invention was determined as follows:
# Male golden Syrian hamsters weighing from 80 to 100 g were randomly divided into groups. The hamsters were first fed standard laboratory diets (solid feed MF-1 for mouse/rat/hamster, manufactured by Oriental Yeast Industries, KK) for 3 days. Then, they were fed the experimental diet containing 1% cholesterol and 0.5% cholic acid (manufactured by Oriental Yeast Industries, KK), ad libitum. At the same time, the compounds of the invention formulated in a shown dose (25 mg or 50 mg/10 ml water/kg) were administrated to the animals orally once a day at a determined time for 5 days. Water was administrated orally to the hamsters of control group in an amount of 10 ml per 1 kg of body weight. After five days of administrating the compounds, they were anesthetized with Pentobarbital Na (Nembutal injection, manufactured by Dainabbot) and three hours after the final administration of the test compound, a blood samples (2-3 ml) was taken from abdominal cava. The serum was separated by centrifuging.
# The cholesterol level in the serum was determined by using a blood cholesterol measuring kit, Determina-TC5 manufactured by Kyowa Medix Co. The results are represented by percent inhibition (%) of cholesterol level in serum relative to that of the control group, and shown in the following Table 4, each compound number corresponding to that in the above Table 3.
# Acute toxicity test = conditions: rat, in vivo, po; P.O., suspended in 1% tragacanth solution, SD male and female rats, seven day observation
# From the text: A compound according to the present invention suspended in a 1% tragacanth solution was administrated orally to SD male and female rats. Then, the number of fatal rats was counted during seven day observation. The LD50 value is shown in the following Table 6, the compound number corresponding to that in the above Table 3.
# cholesterol in serum [2] = test: Effect of reducing lipid level in blood: percent inhibition of cholesterol in serum of hamsters fed 1% cholesterol and 0.5% cholic acid diet; assay type: in vivo, Male golden Syrian hamsters; conditions: Mesocricetus auratus, po, 120 h, orally once a day for 5 days, relative to control group; remark: listed apart in the source
# [3] = biological target: ACAT (acyl coenzyme cholesterol acyltransferase); test: ACAT inhibitory action in hamster microsomes (cholesteryl-[14C] oleate formation); assay type: biochemical; conditions: radio-labelled oleoyl coenzyme A
# Experimental: The ACAT inhibitory action of the compounds according to the present invention was measured as follows:
# ACAT activity in the hamster microsomes was determined by measuring the rate of radio-active cholesteryl-[^14 C] oleate formation from cholesterol and radio-labelled oleoyl coenzyme A (^14 C) with or without test compound.
# Calculations of IC50 value were made using data of the percent inhibition at each compound concentration. The results are shown in the following Table 5, each compound number corresponding to that in Table 3.
IC50 [3] [nM],SMILES,inhibition in vivo at 25 mg/kg (cholesterol in serum [1]) [%],LD50 at 168 h (Acute toxicity test) [mg/kg],inhibition in vivo at 5 mg/kg (cholesterol in serum [2]) [%]
,"CCCCCCCCc1ccc(NC(=O)Nc2c(Cl)cccc2Cl)cc1 [Compound No. 2, 1-(4-octylphenyl)-3-(2,6-dichlorophenyl)urea]",49,,
10,"CCCCCCCCCc1ccc(NC(=O)Nc2c(C(C)C)cccc2C(C)C)cc1 [Compound No. 19, 1-(4-nonylphenyl)-3-(2,6-diisopropylphenyl)urea]",64,,
,"CC(C)c1cccc(C(C)C)c1NC(=O)Nc1ccc(C(C)(C)C)cc1 [Compound No. 26, reference compound]",19,,
,CCCCCCCCc1ccc(NC(=O)Nc2c(Br)cccc2Br)cc1 [compound 4],55,,
,CCCCCCCCc1ccc(NC(=O)Nc2c(C)cccc2C)cc1 [compound 5],44,,
,CCCCCCCCc1ccc(NC(=O)Nc2c(CC)cccc2CC)cc1 [compound 7],48,,
,CCCCCCCCc1ccc(NC(=O)Nc2c(Cl)ccc(C)c2Cl)cc1 [compound 11],47,,
,CCCCCCCCc1ccc(NC(=O)Nc2c(OC)cccc2OC)cc1 [compound 12],54,,
,CCCCCCCCc1ccccc1NC(=O)Nc1c(C(C)C)cccc1C(C)C [compound 13],54,,
,CCCCCc1ccc(NC(=O)Nc2c(C(C)C)cccc2C(C)C)cc1 [compound 16],34,,
11,CCCCCCc1ccc(NC(=O)Nc2c(C(C)C)cccc2C(C)C)cc1 [compound 17],60,,
6,CCCCCCCc1ccc(NC(=O)Nc2c(C(C)C)cccc2C(C)C)cc1 [compound 18],49,,
12,CCCCCCCCCCc1ccc(NC(=O)Nc2c(C(C)C)cccc2C(C)C)cc1 [compound 20],59,,

SMILES,IC50 [3] [nM],inhibition in vivo at 25 mg/kg (cholesterol in serum [1]) [%],LD50 at 168 h (Acute toxicity test) [mg/kg],inhibition in vivo at 5 mg/kg (cholesterol in serum [2]) [%]
CCCCCCCCc1ccc(NC(=O)Nc2c(C(C)C)cccc2C(C)C)cc1 [Compound No. 8],4,55,> 2000,35
